The numbers were not newly measured in patent publication US8309108B2, “Intranasal compositions” (Archimedes Development Limited, priority 2007, dated 2012), which cites them from elsewhere.

Counter-ions that a name gives are not always drawn.

For the series the following is noted: room temperature.

Turning to `CN1CCc2cccc3c2C1Cc1ccc(O)c(O)c1-3` (stereo not shown) [apomorphine hydrochloride, 6aβ-aporphine-10,11-diol], the Saturated aqueous solubility result is on record as “around 20 mg/ml”.
